Experimental data as given in patent publication US6906097B2, “8-azaprostaglandin analogs as agents for lowering intraocular pressure” (Allergan, Inc., priority 2002, dated 2005).

Target: T1, hEP1 (Homo sapiens, UniProt P34995)
T1 construct: expressed in transfected cells
T1 sequence (P34995 1-402): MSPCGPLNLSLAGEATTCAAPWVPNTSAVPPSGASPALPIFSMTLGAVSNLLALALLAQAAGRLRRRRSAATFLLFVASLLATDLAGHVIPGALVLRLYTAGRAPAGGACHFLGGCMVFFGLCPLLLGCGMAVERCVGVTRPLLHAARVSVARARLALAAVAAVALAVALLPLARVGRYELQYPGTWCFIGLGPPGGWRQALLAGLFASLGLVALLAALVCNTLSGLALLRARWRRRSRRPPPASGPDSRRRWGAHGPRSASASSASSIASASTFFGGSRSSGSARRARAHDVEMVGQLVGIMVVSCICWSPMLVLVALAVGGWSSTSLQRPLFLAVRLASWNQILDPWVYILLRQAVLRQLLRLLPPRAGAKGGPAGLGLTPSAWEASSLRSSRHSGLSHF
Assay: Radioligand binding, hEP1
Conditions: [3H]PGE2 competition
Method: Human Recombinant EP1, EP2, EP3, EP4, FP, TP, IP and DP Receptors: Stable Transfectants
Plasmids encoding the human EP1, EP2, EP3, EP4, FP, TP, IP and DP receptors were prepared by cloning the respective coding sequences into the eukaryotic expression vector pCEP4 (Invitrogen). The pCEP4 vector contains an Epstein Barr virus (EBV) origin of replication, which permits episomal replication in primate cell lines expressing EBV nuclear antigen (EBNA-1). It also contains a hygromycin resistance gene that is used for eukaryotic selection. The cells employed for stable transfection were human embryonic kidney cells (HEK-293) that were transfected with and express the EBNA-1 protein. These HEK-293-EBNA cells (Invitrogen) were grown in medium containing Geneticin (G418) to maintain expression of the EBNA-1 protein. […]
Radioligand binding studies on plasma membrane fractions prepared for cells stably transfected with the cat or human receptor were performed as follows. […] The pellet was then resuspended in TME buffer to provide a final protein concentration of 1 mg/ml, as determined by Bio-Rad assay. […]
The binding of [^3H](N) PGE2 (specific activity 165 Ci/mmol) was determined in duplicate and in at least 3 separate experiments. […] Competition studies were performed using a final concentration of 2.5 or 5 nM [^3H](N) PGE2 and non-specific binding was determined with 10^−5 M unlabelled PGE2.

IC50: 5.8 µM
SMILES: O=C(O)CCCCCCN1C(=O)CC[C@@H]1CCC(O)Cc1cccc(Cl)c1 (stereo partly drawn) [Example 1, 7-[2S-[3R-Hydroxy-4-(chloro-phenyl)-butyl]-5-oxo-pyrrolidin-1-yl]-heptanoic acid]
